Experimental data reported in ChEMBL document CHEMBL1201862, “PubChem BioAssay data set” (2004).
One block for each molecule: values may come before it. Calls of active or inactive are those of the source.

Assays:
Format in all cases: functional
[1] = Luminescence Cell-Based Dose Confirmation HTS to Identify Activators of 5'UTR Stem-Loop Driven Alpha-Synuclein mRNA Translation in H4 Neuroglioblastoma Cells. [Related pubchem assays: 1829 (Project Summary), 1814 (Primary HTS)]
[2] = target: T1, Sentrin-specific protease 6 (Homo sapiens, UniProt Q9GZR1);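 also: Luminescence-based dose-response confirmatory assay of SENP6 inhibition, following up an ultra-high-throughput screen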
T1 sequence (Q9GZR1 whole entry): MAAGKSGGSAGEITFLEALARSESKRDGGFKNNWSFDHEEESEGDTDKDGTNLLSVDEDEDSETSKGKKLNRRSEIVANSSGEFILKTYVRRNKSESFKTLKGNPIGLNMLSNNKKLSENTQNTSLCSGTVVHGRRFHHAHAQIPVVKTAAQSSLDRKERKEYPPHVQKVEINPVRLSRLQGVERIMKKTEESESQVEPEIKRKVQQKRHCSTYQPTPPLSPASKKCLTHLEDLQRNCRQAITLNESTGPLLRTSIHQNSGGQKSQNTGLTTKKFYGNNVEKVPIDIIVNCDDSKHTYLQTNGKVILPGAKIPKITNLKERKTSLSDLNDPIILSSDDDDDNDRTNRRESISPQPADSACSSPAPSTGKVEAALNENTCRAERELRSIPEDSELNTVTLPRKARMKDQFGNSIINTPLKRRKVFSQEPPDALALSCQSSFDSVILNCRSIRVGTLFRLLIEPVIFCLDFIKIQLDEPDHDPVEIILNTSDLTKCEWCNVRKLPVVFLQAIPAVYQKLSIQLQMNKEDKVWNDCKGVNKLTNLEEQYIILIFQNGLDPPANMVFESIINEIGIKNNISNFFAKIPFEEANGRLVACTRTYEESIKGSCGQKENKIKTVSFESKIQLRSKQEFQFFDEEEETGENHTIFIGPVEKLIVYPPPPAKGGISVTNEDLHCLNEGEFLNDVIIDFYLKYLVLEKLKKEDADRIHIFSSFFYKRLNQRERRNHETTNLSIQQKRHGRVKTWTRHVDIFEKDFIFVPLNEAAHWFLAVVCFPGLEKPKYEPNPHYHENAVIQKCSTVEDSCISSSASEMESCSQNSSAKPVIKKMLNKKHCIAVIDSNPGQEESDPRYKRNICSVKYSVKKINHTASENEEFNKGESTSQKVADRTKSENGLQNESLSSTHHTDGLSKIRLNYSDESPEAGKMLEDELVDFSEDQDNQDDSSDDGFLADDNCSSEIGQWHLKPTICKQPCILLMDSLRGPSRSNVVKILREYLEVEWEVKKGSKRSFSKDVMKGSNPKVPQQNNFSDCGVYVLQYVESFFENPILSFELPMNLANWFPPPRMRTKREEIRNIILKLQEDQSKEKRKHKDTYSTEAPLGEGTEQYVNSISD

[3] = target: T2, Sentrin-specific protease 8 (Homo sapiens, UniProt Q96LD8)
T2 sequence (Q96LD8 whole entry): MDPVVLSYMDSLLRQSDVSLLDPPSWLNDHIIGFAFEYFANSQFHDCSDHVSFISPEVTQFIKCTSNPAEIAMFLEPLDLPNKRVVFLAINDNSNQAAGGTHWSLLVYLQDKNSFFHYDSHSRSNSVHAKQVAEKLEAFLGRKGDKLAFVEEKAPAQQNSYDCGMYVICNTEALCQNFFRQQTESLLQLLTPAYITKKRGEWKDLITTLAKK

[4] = target: T2, Sentrin-specific protease 8; remark: listed apart in the source
[5] = target: Phosphorylase b kinase gamma catalytic chain, liver/testis isoform (Homo sapiens, UniProt P15735);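 also: PHKG2 measured as one member of a kinome-wide kinase panel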
[6] = target: Serine/threonine-protein kinase D2 (Homo sapiens, UniProt Q9BZL6);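 also: measured against PRKD2 as one member of a kinome-wide kinase profiling panel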
[7] = target: Serine/threonine-protein kinase 17A (Homo sapiens, UniProt Q9UEE5)
[8] = target: MAP kinase-activated protein kinase 5 (Homo sapiens, UniProt Q8IW41);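 also: measured as one member of a kinome panel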
[9] = target: Cell division cycle 7-related protein kinase (Homo sapiens, UniProt O00311);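 also: value obtained from a kinome-wide kinase panel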
[10] = target: Testis-specific serine/threonine-protein kinase 1 (Homo sapiens, UniProt Q9BXA7)
[11] = target: MAP/microtubule affinity-regulating kinase 3 (Homo sapiens, UniProt P27448);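 also: MARK3 affinity measured as one member of a kinome panel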
[12] = target: MAP kinase-activated protein kinase 3 (Homo sapiens, UniProt Q16644);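 also: value comes from a kinome-wide profiling panel in which MAPKAPK3 is one of the panel members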
[13] = target: Tyrosine-protein kinase ABL1 (Homo sapiens, UniProt P00519)
[14] = target: MAP kinase-interacting serine/threonine-protein kinase 2 (Homo sapiens, UniProt Q9HBH9)
[15] = target: Insulin-like growth factor 1 receptor (Homo sapiens, UniProt P08069); assay: Navigating the Kinome. Panel member name: IGF1R
[16] = target: Mitogen-activated protein kinase 1 (Homo sapiens, UniProt P28482)
[17] = target: Protein-tyrosine kinase 6 (Homo sapiens, UniProt Q13882)
[18] = target: Interleukin-1 receptor-associated kinase 4 (Homo sapiens, UniProt Q9NWZ3)
[19] = target: RAC-alpha serine/threonine-protein kinase (Homo sapiens, UniProt P31749);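 also: AKT1 affinity measured as one member of a kinome-wide kinase profiling panel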
[20] = target: Tyrosine-protein kinase Fer (Homo sapiens, UniProt P16591);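 also: FER tested as one member of a kinome panel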
[21] = target: Serine/threonine-protein kinase pim-2 (Homo sapiens, UniProt Q9P1W9);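 also: value comes from a broad kinase panel profiling study in which PIM2 was one of the panel members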
[22] = target: Tyrosine-protein kinase Lck (Homo sapiens, UniProt P06239);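 also: lck was assayed as one member of a kinase panel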
[23] = target: Platelet-derived growth factor receptor beta (Homo sapiens, UniProt P09619);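 also: value comes from a kinome panel, with PDGFRB tested as one panel member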
[24] = target: Calcium/calmodulin-dependent protein kinase type II subunit beta (Homo sapiens, UniProt Q13554)
[25] = target: G protein-coupled receptor kinase 5 (Homo sapiens, UniProt P34947); assay: Navigating the Kinome. Panel member name: GPRK5
[26] = target: High affinity nerve growth factor receptor (Homo sapiens, UniProt P04629);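 also: NTRK1 tested as one member of a kinome-wide profiling panel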

Chain of Serine/threonine-protein kinase 17A (Q9UEE5 whole entry): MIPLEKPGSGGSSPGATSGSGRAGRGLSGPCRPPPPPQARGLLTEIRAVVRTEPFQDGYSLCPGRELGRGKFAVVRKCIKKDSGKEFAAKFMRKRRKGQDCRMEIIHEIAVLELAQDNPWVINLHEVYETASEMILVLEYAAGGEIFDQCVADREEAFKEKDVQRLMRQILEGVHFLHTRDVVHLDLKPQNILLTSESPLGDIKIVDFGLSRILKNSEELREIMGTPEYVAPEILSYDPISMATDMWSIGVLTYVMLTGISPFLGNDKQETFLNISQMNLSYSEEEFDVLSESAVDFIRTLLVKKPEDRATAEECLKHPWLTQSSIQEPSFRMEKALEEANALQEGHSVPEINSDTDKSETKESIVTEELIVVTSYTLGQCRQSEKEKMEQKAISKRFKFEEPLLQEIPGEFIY
Chain of Insulin-like growth factor 1 receptor (P08069 31-736 limits assumed): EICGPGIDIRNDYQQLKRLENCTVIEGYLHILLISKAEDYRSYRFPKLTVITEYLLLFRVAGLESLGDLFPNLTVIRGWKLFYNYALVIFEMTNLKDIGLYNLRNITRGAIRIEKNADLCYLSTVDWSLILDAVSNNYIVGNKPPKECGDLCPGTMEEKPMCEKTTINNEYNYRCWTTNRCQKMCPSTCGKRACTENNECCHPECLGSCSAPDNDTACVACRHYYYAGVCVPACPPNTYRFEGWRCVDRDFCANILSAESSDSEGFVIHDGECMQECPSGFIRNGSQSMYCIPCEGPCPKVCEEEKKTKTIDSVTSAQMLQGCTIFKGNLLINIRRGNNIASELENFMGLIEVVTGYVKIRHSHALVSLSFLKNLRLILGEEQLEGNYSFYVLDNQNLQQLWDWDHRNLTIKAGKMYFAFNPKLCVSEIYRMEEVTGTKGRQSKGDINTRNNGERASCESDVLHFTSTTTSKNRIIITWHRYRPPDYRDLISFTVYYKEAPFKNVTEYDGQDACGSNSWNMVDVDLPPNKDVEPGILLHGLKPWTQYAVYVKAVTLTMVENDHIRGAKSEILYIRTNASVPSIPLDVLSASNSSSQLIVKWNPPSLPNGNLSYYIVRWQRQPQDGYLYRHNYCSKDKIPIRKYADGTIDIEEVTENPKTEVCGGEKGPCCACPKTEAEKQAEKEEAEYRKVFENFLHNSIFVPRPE
Chain of Insulin-like growth factor 1 receptor (P08069 741-1367 limits assumed): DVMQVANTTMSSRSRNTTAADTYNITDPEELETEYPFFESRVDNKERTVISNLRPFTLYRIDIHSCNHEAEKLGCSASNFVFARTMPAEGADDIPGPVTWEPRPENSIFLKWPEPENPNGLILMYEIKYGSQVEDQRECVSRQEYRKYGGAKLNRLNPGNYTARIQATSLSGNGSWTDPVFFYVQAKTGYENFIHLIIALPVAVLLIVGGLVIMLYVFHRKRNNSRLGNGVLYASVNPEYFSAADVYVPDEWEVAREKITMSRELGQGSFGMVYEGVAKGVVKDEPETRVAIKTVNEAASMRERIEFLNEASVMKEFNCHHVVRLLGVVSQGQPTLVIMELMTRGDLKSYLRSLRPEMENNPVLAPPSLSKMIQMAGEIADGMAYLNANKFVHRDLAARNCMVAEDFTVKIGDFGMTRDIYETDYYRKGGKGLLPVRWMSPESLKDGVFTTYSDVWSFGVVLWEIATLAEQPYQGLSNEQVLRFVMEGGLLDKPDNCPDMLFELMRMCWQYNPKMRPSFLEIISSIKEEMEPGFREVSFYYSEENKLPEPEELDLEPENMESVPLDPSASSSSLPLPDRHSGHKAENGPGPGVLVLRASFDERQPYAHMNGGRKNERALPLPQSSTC
Chain of Tyrosine-protein kinase ABL1 (P00519 whole entry): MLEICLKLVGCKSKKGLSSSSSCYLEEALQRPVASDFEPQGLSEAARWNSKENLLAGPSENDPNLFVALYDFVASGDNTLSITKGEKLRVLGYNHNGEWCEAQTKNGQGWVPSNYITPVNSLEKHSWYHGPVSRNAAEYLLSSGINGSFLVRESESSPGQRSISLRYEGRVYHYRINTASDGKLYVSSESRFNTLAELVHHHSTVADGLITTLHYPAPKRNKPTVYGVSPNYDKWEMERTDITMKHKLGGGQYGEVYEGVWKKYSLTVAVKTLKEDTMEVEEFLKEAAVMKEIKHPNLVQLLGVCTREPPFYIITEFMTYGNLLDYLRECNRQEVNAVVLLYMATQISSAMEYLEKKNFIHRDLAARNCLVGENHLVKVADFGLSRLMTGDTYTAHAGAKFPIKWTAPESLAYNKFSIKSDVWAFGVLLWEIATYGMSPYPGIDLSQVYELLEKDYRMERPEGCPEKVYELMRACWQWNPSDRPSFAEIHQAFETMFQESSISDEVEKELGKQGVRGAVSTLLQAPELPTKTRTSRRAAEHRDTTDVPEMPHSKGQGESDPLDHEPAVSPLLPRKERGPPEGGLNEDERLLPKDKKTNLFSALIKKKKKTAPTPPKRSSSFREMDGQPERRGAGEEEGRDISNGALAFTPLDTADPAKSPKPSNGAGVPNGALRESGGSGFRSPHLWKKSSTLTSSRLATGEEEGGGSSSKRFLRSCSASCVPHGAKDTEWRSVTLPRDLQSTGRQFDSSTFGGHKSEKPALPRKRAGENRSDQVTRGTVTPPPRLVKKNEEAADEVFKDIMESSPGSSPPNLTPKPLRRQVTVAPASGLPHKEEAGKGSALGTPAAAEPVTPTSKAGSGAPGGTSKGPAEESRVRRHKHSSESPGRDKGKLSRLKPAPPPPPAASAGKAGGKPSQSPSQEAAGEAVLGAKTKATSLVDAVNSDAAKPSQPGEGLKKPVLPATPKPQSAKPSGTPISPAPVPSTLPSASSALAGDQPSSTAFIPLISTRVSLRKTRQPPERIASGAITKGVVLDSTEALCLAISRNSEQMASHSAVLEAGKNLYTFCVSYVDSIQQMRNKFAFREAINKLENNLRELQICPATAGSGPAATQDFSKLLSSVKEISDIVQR
Chain of Protein-tyrosine kinase 6 (Q13882 whole entry): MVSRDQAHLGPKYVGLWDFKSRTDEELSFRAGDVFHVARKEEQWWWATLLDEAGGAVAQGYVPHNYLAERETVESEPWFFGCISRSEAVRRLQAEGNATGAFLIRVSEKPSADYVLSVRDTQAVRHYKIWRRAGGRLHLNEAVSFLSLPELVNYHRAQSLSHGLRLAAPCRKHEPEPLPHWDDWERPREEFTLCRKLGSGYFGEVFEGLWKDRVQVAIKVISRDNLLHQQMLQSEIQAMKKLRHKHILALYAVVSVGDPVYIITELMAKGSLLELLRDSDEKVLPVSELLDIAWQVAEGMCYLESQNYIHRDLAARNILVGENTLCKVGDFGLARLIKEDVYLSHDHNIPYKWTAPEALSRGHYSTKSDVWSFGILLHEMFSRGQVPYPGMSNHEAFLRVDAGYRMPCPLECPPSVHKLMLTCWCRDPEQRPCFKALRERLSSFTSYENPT
Chain of MAP/microtubule affinity-regulating kinase 3 (P27448 whole entry): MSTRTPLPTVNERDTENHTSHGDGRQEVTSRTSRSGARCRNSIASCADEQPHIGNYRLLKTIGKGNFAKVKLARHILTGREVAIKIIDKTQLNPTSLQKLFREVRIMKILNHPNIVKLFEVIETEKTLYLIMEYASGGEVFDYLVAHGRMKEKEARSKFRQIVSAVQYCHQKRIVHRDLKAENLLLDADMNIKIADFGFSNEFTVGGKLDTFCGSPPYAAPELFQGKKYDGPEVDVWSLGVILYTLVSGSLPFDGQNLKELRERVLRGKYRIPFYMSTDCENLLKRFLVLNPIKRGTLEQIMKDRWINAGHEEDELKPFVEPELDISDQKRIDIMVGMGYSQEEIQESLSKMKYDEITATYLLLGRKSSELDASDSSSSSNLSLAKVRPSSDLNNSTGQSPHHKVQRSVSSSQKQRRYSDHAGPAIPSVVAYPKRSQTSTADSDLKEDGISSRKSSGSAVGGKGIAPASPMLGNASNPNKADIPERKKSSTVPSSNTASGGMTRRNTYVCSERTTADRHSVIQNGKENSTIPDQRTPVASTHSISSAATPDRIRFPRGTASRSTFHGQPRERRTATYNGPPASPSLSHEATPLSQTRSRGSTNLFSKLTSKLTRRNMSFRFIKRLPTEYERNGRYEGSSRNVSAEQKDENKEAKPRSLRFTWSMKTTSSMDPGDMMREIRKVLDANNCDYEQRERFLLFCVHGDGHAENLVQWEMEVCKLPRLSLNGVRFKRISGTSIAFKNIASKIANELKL
Chain of MAP kinase-activated protein kinase 3 (Q16644 whole entry): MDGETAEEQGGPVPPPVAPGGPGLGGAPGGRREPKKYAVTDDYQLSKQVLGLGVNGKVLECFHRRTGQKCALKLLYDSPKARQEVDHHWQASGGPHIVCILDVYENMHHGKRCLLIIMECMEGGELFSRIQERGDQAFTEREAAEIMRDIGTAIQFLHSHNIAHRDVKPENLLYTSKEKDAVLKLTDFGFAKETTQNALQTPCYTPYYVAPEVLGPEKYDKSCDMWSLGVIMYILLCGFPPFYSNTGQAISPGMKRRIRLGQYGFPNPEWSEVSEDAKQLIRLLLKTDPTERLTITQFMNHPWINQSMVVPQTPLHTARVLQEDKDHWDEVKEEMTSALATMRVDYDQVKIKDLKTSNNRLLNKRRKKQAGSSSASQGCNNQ
Chain of Mitogen-activated protein kinase 1 (P28482 whole entry): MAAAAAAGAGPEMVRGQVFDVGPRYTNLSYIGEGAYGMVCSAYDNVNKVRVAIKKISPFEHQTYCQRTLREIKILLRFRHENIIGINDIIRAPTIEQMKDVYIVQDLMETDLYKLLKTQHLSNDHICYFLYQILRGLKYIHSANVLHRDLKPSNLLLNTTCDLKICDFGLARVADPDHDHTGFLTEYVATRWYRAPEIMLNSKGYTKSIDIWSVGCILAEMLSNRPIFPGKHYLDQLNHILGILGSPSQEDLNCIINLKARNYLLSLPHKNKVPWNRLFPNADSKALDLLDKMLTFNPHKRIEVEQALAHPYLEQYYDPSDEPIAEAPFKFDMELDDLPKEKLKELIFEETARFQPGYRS

Ki [5]: 100 nM (active) | Ki [6]: 25.1 nM (active) | Ki [7]: 31.6 nM (active) | Ki [8]: > 1580 nM (inactive) | Ki [9]: 5.01 nM (active) | Ki [10]: 63.1 nM (active) | Ki [11]: 50.1 nM (active) | Ki [12]: > 10000 nM (inactive) | Ki [13]: > 631 nM (inactive) | Ki [14]: 251 nM (active) | Ki [15]: > 2000 nM (inactive) | Ki [16]: 1580 nM (active) | Ki [17]: > 2510 nM (inactive) | Ki [18]: 50.1 nM (active) | Ki [19]: 1260 nM (active) | Ki [20]: 1000 nM (active) | Ki [21]: 501 nM (active)
SMILES: NC1CCC(Nc2nccc(-c3c[nH]c4ncccc34)n2)CC1 (stereo unspecified)

Ki [22]: 100000 nM (active) | Ki [23]: 50100 nM (active)
SMILES: OCc1cc(-c2ccc3[nH]ncc3c2)on1

The next lines start with the molecule.

SMILES: O=C1C2=[N+]([O-])[C@H]3CCCC[C@H]3[N+]([O-])=C2c2ccccc21
EC50 [1]: > 120000 nM (not active) | IC50 [2]: 10200 nM (active) | IC50 [3]: 21500 nM (active) | IC50 [4]: 2680 nM (active)

SMILES: COC(C(=O)N1Cc2[nH]nc(NC(=O)c3ccc(N4CCN(C)CC4)cc3)c2C1)c1ccccc1 (stereo unspecified)
Ki [24]: 7940 nM (active) | Ki [25]: > 3980 nM (inactive)

SMILES: CC(C)(O)c1cn(-c2ccc3[nH]ncc3c2)nn1
Ki [26]: 79400 nM (active)
